Laboratory results published in PubChem BioAssay AID1033 (Sanford-Burnham Center for Chemical Genomics, 2008).
The source made the active and inactive calls. The rule behind the calls is not given here.

Target: Chaperone protein DnaK (Escherichia coli (strain K12)) (UniProt P0A6Y8)
Experiment: binders of DnaK substrate-binding domain, biophysical, NMR, chaperone (AID 1033)
Conditions: Purified DnaK SBD, NMR ligand binding

Chain of Chaperone protein DnaK (Escherichia coli (strain K12)) (P0A6Y8 whole entry, looked up, the tested form may be a part): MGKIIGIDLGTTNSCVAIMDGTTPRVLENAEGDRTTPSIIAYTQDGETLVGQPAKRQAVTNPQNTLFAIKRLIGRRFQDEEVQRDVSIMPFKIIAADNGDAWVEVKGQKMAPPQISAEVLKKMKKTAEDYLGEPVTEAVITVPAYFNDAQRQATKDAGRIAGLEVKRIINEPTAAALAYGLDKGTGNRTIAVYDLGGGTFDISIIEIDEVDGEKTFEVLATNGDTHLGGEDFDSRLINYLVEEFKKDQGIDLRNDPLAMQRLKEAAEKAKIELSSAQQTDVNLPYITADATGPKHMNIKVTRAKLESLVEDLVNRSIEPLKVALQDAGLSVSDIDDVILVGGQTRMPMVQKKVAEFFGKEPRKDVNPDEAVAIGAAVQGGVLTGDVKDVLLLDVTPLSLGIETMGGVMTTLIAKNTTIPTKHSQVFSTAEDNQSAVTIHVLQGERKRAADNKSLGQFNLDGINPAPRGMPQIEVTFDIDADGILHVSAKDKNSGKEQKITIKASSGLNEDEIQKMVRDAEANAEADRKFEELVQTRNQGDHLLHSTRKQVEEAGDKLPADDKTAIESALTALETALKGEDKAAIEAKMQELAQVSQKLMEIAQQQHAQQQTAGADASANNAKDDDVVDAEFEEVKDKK

Row | SMILES | Kd
1 | Cc1cc(=O)c2c(O)cc(O)c(C)c2o1 | > 4 mM (inactive)
2 | Cc1cccc(N2C(=O)CC(=O)NC2=O)c1 | > 4 mM (inactive)
3 | NC(=O)c1ccc(-c2ccccn2)s1 | > 4 mM (inactive)
4 | Oc1ccc(/C=C/c2cc(O)cc(O)c2)cc1 | > 4 mM (inactive)
5 | OC1CCN(C(=S)NC2CC2)CC1 | > 4 mM (inactive)
6 | c1ccc(CCc2nc(-c3cccnc3)no2)cc1 | > 4 mM (inactive)
7 | CSc1ccccc1NC(=O)c1cccnc1 | > 4 mM (inactive)
8 | O=C(NCC1CCCCC1)c1ccco1 | > 4 mM (inactive)
9 | Nc1[nH]c(=S)ncc1S(=O)(=O)c1ccccc1 | > 4 mM (inactive)
10 | Cc1n[nH]c(C)c1CC(=O)O | > 4 mM (inactive)
11 | CC(C)NS(=O)(=O)c1ccc(N)cc1 | > 4 mM (inactive)
12 | COc1c(-c2coc3cc4c(cc3c2=O)CC(OC(C)=O)C(C)(C)O4)ccc2c1C=CC(C)(C)O2 (stereo not given) | > 4 mM (inactive)
13 | CC(C)n1c(-c2ccncc2)n[nH]c1=S | > 4 mM (inactive)
14 | Nc1ccnc(C(=O)O)c1 | > 4 mM (inactive)
15 | COC(=O)CSc1nc(N)cc(=O)[nH]1 | > 4 mM (inactive)
16 | CSc1nnc2c(n1)OC=Nc1ccccc1-2 | > 4 mM (inactive)
17 | O=C(O)c1cc2ccccc2s1 | > 4 mM (inactive)
18 | COc1cccc(NC(=O)c2nc3ncccn3n2)c1 | > 4 mM (inactive)
19 | Cc1[nH]c2ccccc2c1Cc1n[nH]c(=S)n1C | > 4 mM (inactive)
20 | CCOc1ccc(Cl)cc1S(=O)(=O)N1CCCC1 | > 4 mM (inactive)

Row | SMILES | Kd
21 | CC(C)(C)CC(=O)N1CCC(C(N)=O)CC1 | > 4 mM (inactive)
22 | O=C(c1cnsn1)N1CCN(c2ccccc2)CC1 | > 4 mM (inactive)
23 | COc1cc2c(c(OC)c1OC)-c1ccc(O)c(=O)cc1[C@@H](NC(C)=O)CC2 | > 4 mM (inactive)
24 | O=C(Nc1cccnc1)N1CCOCC1 | > 4 mM (inactive)
25 | CC(=O)Nc1sccc1C(=O)NC(N)=O | > 4 mM (inactive)
26 | O=C1NC(=O)/C(=C\c2ccco2)S1 | > 4 mM (inactive)
27 | C(=C\c1ccccc1)/C=N/n1cnnc1 | > 4 mM (inactive)
28 | CNc1nc(OC)nc(N2CCOCC2)n1 | > 4 mM (inactive)
29 | Cc1onc(-c2c(F)cccc2Cl)c1C(N)=O | > 4 mM (inactive)
30 | COc1ccccc1NC(=O)NC(N)=O | > 4 mM (inactive)
31 | CCOC(=O)c1c[nH]c2c(F)cccc2c1=O | > 4 mM (inactive)
32 | CC1(O)CC2C=CC1C2 (stereo not given) | > 4 mM (inactive)
33 | COc1cccc(NC(=O)c2cccs2)c1 | > 4 mM (inactive)
34 | COc1ccccc1CNc1nc2nc(C)cc(=O)n2[nH]1 | > 4 mM (inactive)
35 | CC(=O)Oc1cc(OC(C)=O)c2c(c1)O[C@H](c1ccc(OC(C)=O)c(OC(C)=O)c1)[C@H](OC(C)=O)C2 | > 4 mM (inactive)
36 | CCOC(=O)c1cc(C)n(-n2cnnc2)c1C | > 4 mM (inactive)
37 | CC(=O)Nc1cc(O)cc(O)c1 | > 4 mM (inactive)
38 | Nc1ccccc1C(=O)CC(N)C(=O)O (stereo not given) | > 4 mM (inactive)
39 | CC1(C)CC(=O)c2cnn(-c3nc4ccccc4[nH]3)c2C1 | > 4 mM (inactive)
40 | Cc1nc(NC(=O)c2cccnc2)ccc1Br | > 4 mM (inactive)

Row | SMILES | Kd
41 | Cc1ccc(NC(=O)C2CCN(S(C)(=O)=O)CC2)cc1 | > 4 mM (inactive)
42 | O=C(Nc1ccc2ccccc2c1)c1cnccn1 | > 4 mM (inactive)
43 | c1ccc(-c2n[nH]c(-c3ccccn3)n2)nc1 | > 4 mM (inactive)
44 | O=C(O)c1ccc(-c2cccs2)cc1 | > 4 mM (inactive)
45 | O=C1c2ccccc2C(=O)N1CCc1ccccn1 | > 4 mM (inactive)
46 | Nc1nc(-c2ccncc2)cs1 | > 4 mM (inactive)
47 | COC(=O)c1scc(S(C)(=O)=O)c1-n1cccc1 | > 4 mM (inactive)
48 | NC(=O)CC(=O)NC12CC3CC(CC(C3)C1)C2 | > 4 mM (inactive)
49 | OCC12COC3c4ccccc4C(OC1)N32 (stereo not given) | > 4 mM (inactive)
50 | O=C(O)CCc1nc2ccccc2[nH]c1=O | > 4 mM (inactive)
51 | CN1CCn2c1nc(N1CCOCC1)nc2=O | > 4 mM (inactive)
52 | CC(=O)NC(=S)Nc1ccc(S(N)(=O)=O)cc1 | > 4 mM (inactive)
53 | Nc1cccc(S(N)(=O)=O)c1 | > 4 mM (inactive)
54 | OCCN1CCN(C(=S)c2ccc(Cl)cc2)CC1 | > 4 mM (inactive)
55 | COC(=O)C1=CCCN(C)C1 | > 4 mM (inactive)
56 | O=C(O)[C@H](O)[C@@](O)(Cc1ccc(O)cc1)C(=O)O | > 4 mM (inactive)
57 | Cc1ccc(C(=O)N2CCC(C(N)=O)CC2)cc1C | > 4 mM (inactive)
58 | COc1ccc(CN2CCOCC2)c(C)c1C | > 4 mM (inactive)
59 | CCn1cnc(C(=O)NC)c1C(=O)NC | > 4 mM (inactive)
60 | CC(C)NC(=O)c1nc2ccccc2s1 | > 4 mM (inactive)
